Test results published in patent publication US20110053953A1, “AZA-Isoindolones and Their Use as Metabotropic Glutamate Receptor Potentiators - 613” (priority 2007, published 2011).

Target: T1, human mGluR2 (Homo sapiens, UniProt Q14416)
T1 construct: If the GTPgammaS assay was used: nothing is fused
Assay: mGluR2 potentiator functional assays (FLIPR calcium mobilization or [35S]-GTPγS binding; not stated which)
Type: cell-based
Settings: active in assays described herein; allosteric activator (potentiator) activity at mGluR2, assay not specified
Excerpt: The pharmacological properties of the compounds of the invention can be analyzed using standard assays for functional activity. Examples of glutamate receptor assays are well known in the art as described in, for example, Aramori et al., 1992, Neuron, 8:757; Tanabe et al., 1992, Neuron, 8:169; Miller et al., 1995, J. Neuroscience, 15:6103; Balazs, et al., 1997, J. Neurochemistry, 1997, 69:151. The methodology described in these publications is incorporated herein by reference. Conveniently, the compounds of the invention can be studied by means of an assay that measures the mobilization of intracellular calcium, [Ca^2+]i in cells expressing mGluR2.
Fluorometric Imaging Plate Reader (FLIPR) analysis was used to detect allosteric activators of mGluR2 via calcium mobilization. A clonal HEK 293 cell line expressing a chimeric mGluR2/CaR construct comprising the extracellular and transmembrane domains of human mGluR2 and the intracellular domain of the human calcium receptor, fused to the promiscuous chimeric protein G[…]qi5 was used. […]
FLIPR experiments were done using a laser setting of 0.8 W and a 0.4 second CCD camera shutter speed. […] An addition of test compound (0.01 μM to 30 μM in duplicate) was made after 10 seconds of baseline fluorescent readings were recorded on FLIPR. Fluorescent signals were then recorded for an additional 75 seconds at which point a second addition of DCG-IV (0.2 μM) was made and fluorescent signals were recorded for an additional 65 seconds. Fluorescent signals were measured as the peak height of the response within the sample period. Data was analyzed using Assay Explorer, and EC50 and Emax values (relative to maximum DCG-IV effect) were calculated using a four parameter logistic equation.
A [^35S]-GTPγS binding assay was used to functionally assay mGluR2 receptor activation. The allosteric activator activity of compounds at the human mGluR2 receptor were measured using a [^35S]-GTPγS binding assay with membranes prepared from CHO cells which stably express the human mGluR2. […]

T1 sequence (Q14416 19-819 limits assumed): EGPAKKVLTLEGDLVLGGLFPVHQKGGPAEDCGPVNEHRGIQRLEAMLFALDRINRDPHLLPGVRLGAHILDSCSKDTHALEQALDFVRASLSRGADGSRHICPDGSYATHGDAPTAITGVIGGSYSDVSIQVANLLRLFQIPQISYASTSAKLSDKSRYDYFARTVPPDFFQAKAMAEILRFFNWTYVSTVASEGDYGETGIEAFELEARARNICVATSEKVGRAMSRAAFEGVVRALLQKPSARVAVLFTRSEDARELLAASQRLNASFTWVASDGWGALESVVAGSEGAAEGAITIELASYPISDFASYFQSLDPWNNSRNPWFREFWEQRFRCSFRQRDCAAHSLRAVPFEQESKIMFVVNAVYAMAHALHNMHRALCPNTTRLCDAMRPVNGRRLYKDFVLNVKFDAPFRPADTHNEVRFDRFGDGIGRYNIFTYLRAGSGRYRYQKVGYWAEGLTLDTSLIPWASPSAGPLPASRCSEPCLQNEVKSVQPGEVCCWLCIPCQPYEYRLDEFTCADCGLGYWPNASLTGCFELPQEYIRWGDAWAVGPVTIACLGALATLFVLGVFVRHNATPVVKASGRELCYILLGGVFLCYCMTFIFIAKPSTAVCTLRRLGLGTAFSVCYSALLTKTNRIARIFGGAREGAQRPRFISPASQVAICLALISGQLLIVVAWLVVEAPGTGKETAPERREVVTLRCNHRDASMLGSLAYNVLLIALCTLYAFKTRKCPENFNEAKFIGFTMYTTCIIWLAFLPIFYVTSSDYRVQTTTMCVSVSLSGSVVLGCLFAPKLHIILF

SMILES | EC50
Cc1nc(-c2cccc(N(S(C)(=O)=O)S(C)(=O)=O)c2)cc2c1C(=O)N(Cc1ccc(OC(F)(F)F)cc1)C2 [Compound 9, 6-(3-dimethylsulphanomidephenyl)-4-methyl-2-[4-(trifluoromethoxy)benzyl]-1,2-dihydro-3H-pyrrolo[3,4-c]pyridin-3-one] | 160 nM
Cc1nc(-c2cccc(NC=O)c2)cc2c1C(=O)N(CC1CC1)C2 [Compound 20, {3-[2-(cyclopropylmethyl)-4-methyl-3-oxo-2,3-dihydro-1H-pyrrolo[3,4-c]pyridin-6-yl]phenyl}formamide] | 670 nM
Cc1nc(-c2cccc(NS(C)(=O)=O)c2)cc2c1C(=O)N(Cc1ccc(OC(F)(F)F)cc1)C2 [Compound 13, 6-(3-methylsulphanomidephenyl)-4-methyl-2-[4-(trifluoromethoxy)benzyl]-1,2-dihydro-3H-pyrrolo[3,4-c]pyridin-3-one] | 1330 nM
